Experimental data taken from PubChem BioAssay AID328 (DTP/NCI, 2004).
“And” between values parts separate entries of the source, which are not always exact repeats. Identical values can stand only once. Inconclusive results and toxic doses are left out.

System: BDF1 mice, P388 leukemia ip, median survival T/C
Assay: NCI In Vivo Anticancer Drug Screen. Data for tumor model P388 Leukemia (intraperitoneal) in B6D2F1 (BDF1) mice
Conditions: endpoint: median survival time, higher = longer survival
How it was run: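 Steps: implant the tumour, treat one group with compound and another with vehicle, record survival, then divide treated by control.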

[1] = dose: 100.0 mg/kg/injection, schedule: Q04DX003 (ip), vehicle: saline with Tween-80
[2] = dose: 200.0 mg/kg/injection, schedule: Q04DX003 (ip), vehicle: saline with Tween-80
[3] = dose: 400.0 mg/kg/injection, schedule: Q04DX003 (ip), vehicle: saline with Tween-80
[4] = dose: 25.0 mg/kg/injection, schedule: Q01DX009 (ip), vehicle: saline with Tween-80
[5] = dose: 50.0 mg/kg/injection, schedule: Q01DX009 (ip), vehicle: saline with Tween-80
[6] = dose: 50.0 mg/kg/injection, schedule: Q04DX003 (ip), vehicle: saline with Tween-80
[7] = dose: 12.5 mg/kg/injection, schedule: Q01DX009 (ip), vehicle: saline
[8] = dose: 50.0 mg/kg/injection, schedule: Q01DX009 (ip), vehicle: saline
[9] = dose: 50.0 mg/kg/injection, schedule: Q04DX003 (ip), vehicle: saline
[10] = dose: 100.0 mg/kg/injection, schedule: Q04DX003 (ip), vehicle: saline
[11] = dose: 200.0 mg/kg/injection, schedule: Q04DX003 (ip), vehicle: saline
[12] = dose: 100.0 mg/kg/injection, schedule: Q01DX009 (ip), vehicle: saline with Tween-80
[13] = dose: 400.0 mg/kg/injection, schedule: Q04DX003 (ip), vehicle: saline
[14] = dose: 25.0 mg/kg/injection, schedule: Q01DX009 (ip), vehicle: saline
[15] = dose: 1.56 mg/kg/injection, schedule: Q01DX009 (ip), vehicle: saline
[16] = dose: 200.0 mg/kg/injection, schedule: Q01DX009 (ip), vehicle: saline with Tween-80
[17] = dose: 400.0 mg/kg/injection, schedule: Q01DX009 (ip), vehicle: saline with Tween-80
[18] = dose: 100.0 mg/kg/injection, schedule: Q01DX009 (ip), vehicle: saline
[19] = dose: 200.0 mg/kg/injection, schedule: Q01DX009 (ip), vehicle: saline
[20] = dose: 400.0 mg/kg/injection, schedule: Q01DX009 (ip), vehicle: saline

NC(=O)CC(NC(=O)CCl)C(=O)O (stereo not given)
T/C [1]: 90 % of control
T/C [2]: 90 % of control
T/C [3]: 86 % of control

COc1c(OC)c(OC)c2c(c1OC)c(=O)c1ccccc1n2C
T/C (dose: 50.0 mg/kg/injection, schedule: Q01DX010 (ip), vehicle: carboxymethylcellulose (CMC)): 104 % of control
T/C (dose: 100.0 mg/kg/injection, schedule: Q01DX010 (ip), vehicle: carboxymethylcellulose (CMC)): 122 % of control

CC(C)NC(=O)c1ccccc1S(=O)c1ccccc1 (stereo not given)
T/C (dose: 100.0 mg/kg/injection, schedule: Q01DX001 (ip), vehicle: saline with Tween-80): 100 % of control
T/C (dose: 200.0 mg/kg/injection, schedule: Q01DX001 (ip), vehicle: saline with Tween-80): 101 % of control
T/C (dose: 400.0 mg/kg/injection, schedule: Q01DX001 (ip), vehicle: saline with Tween-80): 92 % of control

Cc1nc(N)c(N)nc1C
T/C (dose: 12.5 mg/kg/injection, schedule: Q01DX009 (ip), vehicle: saline with Tween-80): 95 % of control
T/C [4]: 88 % of control
T/C (dose: 25.0 mg/kg/injection, schedule: Q04DX003 (ip), vehicle: saline with Tween-80): 102 % of control
T/C [5]: 107 % of control
T/C [6]: 101 % of control

OCCNCc1ccccc1
T/C (dose: 100.0 mg/kg/injection, schedule: Q04DX003 (ip), vehicle: water): 100 % of control
T/C (dose: 400.0 mg/kg/injection, schedule: Q04DX003 (ip), vehicle: water): 113 % of control

CC1(C)N=C(N)N=C(N)N1c1ccc2ccccc2c1
T/C [7]: 120 % of control
T/C [8]: 160 % of control
T/C [9]: 100 % of control

O=C(CCl)NC(CO)C(=O)O (stereo not given)
T/C [9]: 91 % of control
T/C [10]: 100 % of control
T/C [11]: 91 % of control

O=[N+]([O-])c1ccc(NS(=O)(=O)c2ccc(Cl)c(Cl)c2Cl)c([N+](=O)[O-])c1
T/C [4]: 96 % of control
T/C [5]: 105 % of control
T/C [12]: 102 % of control

CC(=O)CC(=O)NCCNCCNC(=O)CC(C)=O
T/C [10]: 100 % of control
T/C [11]: 114 % of control
T/C [13]: 100 % of control

COc1cc2c3c(c1)C(O)CC[N+]3(C)CCC2 (stereo not given)
T/C [7]: 100 % of control
T/C (dose: 12.5 mg/kg/injection, schedule: Q04DX003 (ip), vehicle: saline): 109 % of control
T/C [14]: 110 % of control
T/C (dose: 25.0 mg/kg/injection, schedule: Q04DX003 (ip), vehicle: saline): 109 % of control
T/C [8]: 100 % of control
T/C [9]: 109 % of control

CC(=O)OC1C(CO)OC2C1Oc1nc(=N)c(F)cn12 (stereo not given)
T/C [15]: 176 % of control
T/C (dose: 3.13 mg/kg/injection, schedule: Q01DX009 (ip), vehicle: saline): 92 % of control and 102 % of control

COc1ccc(-c2c[se]c(=S)s2)cc1
T/C [4]: 99 % of control
T/C [5]: 94 % of control
T/C [12]: 87 % of control

Cc1nc2ccccc2nc1CC(=O)c1ccccc1
T/C [5]: 112 % of control
T/C [12]: 104 % of control
T/C [16]: 99 % of control

O=C(Nc1cc(C(F)(F)F)ccc1Cl)c1ccccc1Cl
T/C [1]: 100 % of control
T/C [2]: 104 % of control
T/C [3]: 113 % of control

CCOC(=O)C(=CN(C)c1ccc([N+](=O)[O-])cc1)C(=O)OCC
T/C (dose: 50.0 mg/kg/injection, schedule: Q01DX009 (ip), vehicle: other): 100 % of control
T/C (dose: 100.0 mg/kg/injection, schedule: Q01DX009 (ip), vehicle: other): 103 % of control
T/C (dose: 200.0 mg/kg/injection, schedule: Q01DX009 (ip), vehicle: other): 109 % of control

Nc1nc(N)c2nc(/C=C/c3ccc4c(c3)OCO4)cnc2n1
T/C [5]: 88 % of control
T/C [12]: 88 % of control
T/C [16]: 88 % of control

O=C(NCc1cnccn1)c1ccc([N+](=O)[O-])cc1
T/C [5]: 100 % of control
T/C [12]: 94 % of control
T/C [16]: 100 % of control
T/C [17]: 103 % of control

Nc1c2ccccc2cc2ccccc12
T/C [5]: 108 % of control
T/C [6]: 108 % of control
T/C [12]: 108 % of control
T/C [1]: 95 % of control
T/C [16]: 113 % of control
T/C [2]: 91 % of control

Cc1cc(N)no1
T/C [18]: 92 % of control
T/C [10]: 104 % of control
T/C [19]: 96 % of control
T/C [11]: 95 % of control
T/C [20]: 92 % of control
T/C [13]: 100 % of control

c1ccc(-c2nnc3oc(-c4ccco4)nn23)cc1
T/C [12]: 91 % of control
T/C [1]: 90 % of control
T/C [16]: 108 % of control
T/C [2]: 100 % of control
T/C [17]: 100 % of control
T/C [3]: 95 % of control

CN(C)c1nn2c(-c3ccccc3)nnc2s1
T/C [18]: 86 % of control
T/C [19]: 90 % of control
T/C [20]: 100 % of control

Clc1ccc2c(c1)N(CCCN1CCCC13CCCCC3)c1ccccc1S2
T/C [15]: 87 % of control
T/C (dose: 1.56 mg/kg/injection, schedule: Q04DX003 (ip), vehicle: saline with Tween-80): 91 % of control
T/C (dose: 3.12 mg/kg/injection, schedule: Q01DX009 (ip), vehicle: saline): 104 % of control
T/C (dose: 3.12 mg/kg/injection, schedule: Q04DX003 (ip), vehicle: saline with Tween-80): 91 % of control
T/C (dose: 6.25 mg/kg/injection, schedule: Q01DX009 (ip), vehicle: saline): 95 % of control
T/C (dose: 6.25 mg/kg/injection, schedule: Q04DX003 (ip), vehicle: saline with Tween-80): 91 % of control
T/C [7]: 95 % of control
T/C (dose: 12.5 mg/kg/injection, schedule: Q04DX003 (ip), vehicle: saline with Tween-80): 95 % of control

COCCCNC1=C(C#N)C(=O)NC2(CCCC2)S1
T/C [5]: 90 % of control
T/C [12]: 90 % of control
T/C [16]: 104 % of control

C=C1C(=O)O[C@@H]2/C=C(\CO)CC/C=C(\C)C[C@H](OC(=O)C(C)CO)[C@@H]12 (stereo not given in full)
T/C (dose: 2.75 mg/kg/injection, schedule: Q01DX009 (ip), vehicle: alcohol): 118 % of control

O=C1OCC2CC3c4ccccc4C12c1ccccc13 (stereo not given)
T/C (dose: 200.0 mg/kg/injection, schedule: Q01DX001 (ip), vehicle: Klucel (hydroxypropylcellulose) (HPC)): 105 % of control
T/C (dose: 400.0 mg/kg/injection, schedule: Q01DX001 (ip), vehicle: Klucel (hydroxypropylcellulose) (HPC)): 95 % of control

O=C(O)C(Cc1ccccc1)N=Cc1c(O)ccc2ccccc12 (stereo not given)
T/C [1]: 105 % of control
T/C [2]: 114 % of control
T/C [3]: 89 % of control

Nc1nc2nc(N=Nc3ccccc3)[nH]c2c(=O)[nH]1
T/C (dose: 50.0 mg/kg/injection, schedule: Q01DX005 (ip), vehicle: saline with Tween-80): 100 % of control
T/C (dose: 100.0 mg/kg/injection, schedule: Q01DX005 (ip), vehicle: saline with Tween-80): 91 % of control
T/C (dose: 200.0 mg/kg/injection, schedule: Q01DX005 (ip), vehicle: saline with Tween-80): 110 % of control

O=C1NC(c2ccccc2)(c2ccccc2)C(=O)N1CCBr
T/C [7]: 105 % of control and 121 % of control
T/C [14]: 105 % of control and 113 % of control
T/C [8]: 107 % of control and 113 % of control
T/C [9]: 107 % of control

O=C(COc1ccc(Cl)cc1)C1CSc2ccc3ccccc3c21 (stereo not given)
T/C (dose: 100.0 mg/kg/injection, schedule: Q04DX003 (ip), vehicle: saline sonified): 95 % of control
T/C (dose: 200.0 mg/kg/injection, schedule: Q04DX003 (ip), vehicle: saline sonified): 90 % of control
T/C (dose: 400.0 mg/kg/injection, schedule: Q04DX003 (ip), vehicle: saline sonified): 95 % of control

CCCCCCCCN(C)N=Nc1ccc(Cl)cc1C(=O)O
T/C [12]: 94 % of control
T/C [16]: 116 % of control
T/C [17]: 88 % of control
